Measurements published in US5929035A, “Methods of treating intestinal disorders” (Regents of the University of Michigan, priority 1998, dated 1999).
Values joined by “and” are separate entries in the source; they are usually repeats but may differ in a detail not shown here. Equal values may be shown once. Read-outs that look alike come from different tables or passages of the source.

Experiments:
[1] = test system: longitudinal muscle strips of proximal colon from BAC- or vehicle-treated rats; experiment: Benzalkonium chloride (BAC) myenteric plexus ablation, organ bath experiments; set-up: species or system rat
Text: This example examined benzalkonium chloride (BAC)-treatment. […] EFS caused frequency-dependent and TTX-sensitive contractions in vehicle-treated tissues but not BAC-treated tissues. However, carbachol contracted both vehicle- and BAC-treated tissues with the same degree. These previous studies indicate that chronic ablation of the myenteric plexus by serosal application of BAC essentially eliminates neuronally mediated responses without a concomitant alteration in muscle contractility. To investigate if the action of OFQ is mediated via intramural myenteric plexus, BAC (0.1%) was applied to the serosal surface of the proximal colon every 5 min for 30 min and then rinsed off with saline. Saline-treated group served as controls. Two weeks after BAC- or saline-treatment, the longitudinal muscle strips were used for the organ bath experiments.
The area under the curve was calculated using Planix 7 (Sokkia Corporation,Overland Park, Kans.) and expressed as a motility index. The area under the curve of basal contraction was evaluated over 10 min in each experiment. The area under the curve of antagonist-induced contractions and OFQ-induced contractions was also evaluated over 10 min. The motility index was compared between basal contractions and OFQ-induced contractions in each experiment.

[2] = test system: post-operative ileus; details: cited from earlier work
[3] = test system: longitudinal muscle from rat proximal colon
[4] = test system: longitudinal and circular muscle from rat colon (proximal colon and distal colon)
[5] = test system: longitudinal and circular muscle layer from the stomach and small intestine; set-up: species or system rat
[6] = test system: longitudinal and circular muscle of the rat proximal colon
[7] = test system: longitudinal muscle strips from rat ileum
[8] = test system: longitudinal muscle strips from rat gastric body
[9] = test system: longitudinal muscle strips from rat proximal colon
[10] = test system: 3H-ACh release from longitudinal muscle strips of ileum; set-up: species or system rat
[11] = test system: 3H-ACh release from longitudinal muscle strips of gastric body; set-up: species or system rat
[12] = test system: 3H-ACh release from longitudinal muscle strips of proximal colon; set-up: species or system rat
[13] = test system: longitudinal muscle from the rat proximal colon
[14] = test system: proximal colon; set-up: species or system rats; details: rat, in vivo, iv
[15] = test system: stomach; set-up: species or system rats; details: rat, in vivo, iv
[16] = test system: colonic transit; set-up: species or system rats; details: rat, in vivo, sc
[17] = test system: gastrointestinal transit; set-up: species or system rats; details: rat, in vivo, sc
[18] = test system: opioid receptor; details: cited from earlier work
[19] = test system: mouse vas deferens; details: cited from earlier work
[20] = test system: guinea pig ileum; details: cited from earlier work
[21] = test system: colonic motility; details: literature; cited from earlier work
[22] = test system: IBS patients; details: literature; cited from earlier work
[23] = patients after abdominal / gastrointestinal surgery, literature trials

Molecule: CCCCCCCCCCCCC[N+](C)(C)Cc1ccccc1 [BAC, benzalkonium chloride]
- spontaneous basal muscle contraction in BAC-treated vs vehicle-treated tissues ([1]; BAC 0.1% on serosal surface of proximal colon, two weeks before): significantly higher
- response to EFS of muscle strips from BAC-treated rats ([1]; EFS 65 V, 0.5 msec, 10 Hz): failed to cause any responses

Molecule: CN1C[C@H](C(=O)N[C@]2(C)O[C@@]3(O)[C@@H]4CCCN4C(=O)[C@H](Cc4ccccc4)N3C2=O)C[C@@H]2c3cccc4[nH]cc(c34)C[C@H]21 [DHE, dihydroergotamine]
- duration of post-operative ileus, treated vs placebo/control patients [2, 23]: no significant differences

Molecule: COC(=O)[C@@H](N)CCCNC(=N)N[N+](=O)[O-] [L-NAME, NG-nitro-L-arginine methyl ester]
- effect of antagonist on OFQ-induced contractions [3]: preserved
- effect on spontaneous contractions in the proximal colon [3]: enhanced spontaneous contractions

Molecule: CC(C)C[C@H](NC(=O)[C@H](CCCCN)NC(=O)[C@H](CCCN=C(N)N)NC(=O)[C@H](C)NC(=O)[C@H](CO)NC(=O)[C@H](CCCCN)NC(=O)[C@H](CCCN=C(N)N)NC(=O)[C@H](C)NC(=O)CNC(=O)[C@@H](NC(=O)[C@H](Cc1ccccc1)NC(=O)CNC(=O)CNC(=O)[C@@H](N)Cc1ccccc1)[C@@H](C)O)C(=O)N[C@@H](C)C(=O)N[C@@H](CC(N)=O)C(=O)N[C@@H](CCC(N)=O)C(=O)O [OFQ, Phe-Gly-Gly-Phe-Thr-Gly-Ala-Arg-Lys-Ser-Ala-Arg-Lys-Leu-Ala-Asn-Gln]
- contractions in longitudinal muscle of proximal colon compared with distal colon (in words) [4]: much greater
- contractions in longitudinal muscle of proximal colon relative to distal colon [4]: 2-3 fold
- region of rat gastrointestinal tract in which contractions were induced [4]: induced contractions only in the colon
- threshold OFQ concentration inducing contractions [4]: 10^-9 M
- contractions in longitudinal and circular muscle layer from stomach and small intestine [5]: failed to elicit significant contractions
- contractions at 10^-7 M compared with 10^-6 M [6]: not significantly different
- dose dependence of induced contractions [6]: in a dose-dependent manner
- maximal effect, increase of basal contraction [6]: 278%±24% and 215%±32%
- persistence of strong phasic contractions [6]: 10 to 15 min
- strips showing a potent initial phasic contraction followed by a phasic response [6]: 60.9%
- strips showing a smaller initial contraction followed by a gradually increasing phasic response [6]: 26.4%
- strips showing only a slight initial contraction followed by a pronounced phasic response [6]: 12.6%
- OFQ-induced contractions in Ca2+-free medium [3]: abolished
- EFS-evoked muscular contraction reduced to [7]: 41.2±8.5%
- EFS-evoked on- and off-contraction in ileum [7]: significantly reduced
- dose dependence of reduction of EFS-evoked muscular contraction [7]: in a dose dependent manner
- EFS-evoked muscular contraction reduced to [8]: 85.2±5.6%
- EFS-evoked of-contraction in the stomach [8]: significantly reduced
- dose dependence of reduction of EFS-evoked muscular contraction [8]: in a dose dependent manner
- off-contraction in response to EFS of the proximal colon [9]: no inhibitory effects
- reduction of EFS-evoked muscular contraction [9]: not in the proximal colon
- contraction of longitudinal muscle from vehicle-treated rats [1]: caused significant contractions
- contraction of longitudinal muscles from BAC-treated rats [1]: no contractile effects
- 3H-ACh release in response to EFS reduced to [10]: 44.7±5.8%
- basal release of 3H-ACh [10]: no effects
- 3H-ACh release in response to EFS reduced to [11]: 88.1±4.3%
- basal release of 3H-ACh [11]: no effects
- basal release of 3H-ACh [12]: no effects
- inhibitory effect on EFS-evoked 3H-ACh release [12]: not observed
- OFQ-induced contractions in the presence of TTX [13]: failed to elicit additional contractions
- muscular contractions in the proximal colon [14]: significantly increased muscular contractions
- muscular contractions in the stomach [15]: not in the stomach
- colonic transit [16]: significantly accelerated
- gastrointestinal transit [17]: without affecting
- activity at the opioid receptor [18]: does not show any activity
- effect on EFS-evoked muscular contraction [19]: potent inhibitory effects
- effect on EFS-evoked muscular contraction [20]: potent inhibitory effects

Molecule: CC(C)C[C@@H]1NC(=O)[C@H](C)NC(=O)[C@H]([C@@H](C)O)NC(=O)[C@H](CCC(=O)O)NC(=O)[C@@H]2CCCN2C(=O)[C@H](C)NC(=O)[C@H](CCCCN)NC(=O)[C@@H]2CSSC[C@@H](C(=O)N[C@@H](CCC(N)=O)C(=O)N[C@@H](CCC(N)=O)C(=O)N[C@@H](Cc3cnc[nH]3)C(N)=O)NC(=O)[C@H](CCCNC(=N)N)NC(=O)[C@H](CCCNC(=N)N)NC(=O)[C@H](C)NC(=O)[C@H](CSSC[C@H](N)C(=O)N[C@@H](CC(N)=O)C(=O)N2)NC1=O [apamin]
- effect of antagonist on OFQ-induced contractions [3]: preserved
- effect on spontaneous contractions in the proximal colon [3]: enhanced spontaneous contractions

Molecule: CN1[C@@H]2CC[C@H]1C[C@@H](OC(=O)C(CO)c1ccccc1)C2 (stereo partly shown) [atropine, Atropine, reference compound]
- effect of antagonist on OFQ-induced contractions [3]: did not affect
- EFS-evoked on- and off-contraction reduced to [7]: 10-20%
- EFS-evoked on- and off-contraction reduced to [8]: 10-20%
- EFS-evoked on- and off-contraction reduced to [9]: 10-20%

Molecule: C[N+](C)(C)CCOC(N)=O [carbachol, reference compound]
- contraction of control and BAC-treated tissues ([1]; carbachol 10^-6 M): contracted both control and BAC-treated tissues with the same degree
- contractions in the presence of TTX [13]: caused further contractions

Molecule: COc1cc(N)c(Cl)cc1C(=O)NC1CCN(CCCOc2ccc(F)cc2)CC1OC (stereo not shown) [cisapride, Cisapride]
- duration of post-operative ileus, treated vs placebo/control patients [2, 23]: no difference
- effect on colonic motility [21]: little effect
- efficacy in constipated patients [21]: not very effective
- stool frequency in IBS patients [22]: increase stool frequency
- whole gut transit in IBS patients [22]: accelerate whole gut transit

Molecule: N=C(N)NCCN1CCCCCCC1 [guanethidine]
- effect of antagonist on OFQ-induced contractions [3]: not affected

Molecule: C[N+](C)(C)CCCCCC[N+](C)(C)C [hexamethonium]
- effect of antagonist on OFQ-induced contractions [3]: did not affect

Molecule: COc1ccc2c(c1)c(CC(=O)O)c(C)n2C(=O)c1ccc(Cl)cc1 [indomethacin]
- effect of antagonist on OFQ-induced contractions [3]: did not affect

Molecule: CC[C@@H](CO)NC(=O)[C@@H]1C=C2c3cccc4c3c(cn4C)C[C@H]2N(C)C1 [methysergide]
- effect of antagonist on OFQ-induced contractions [3]: did not affect

Molecule: CCN(CC)CCNC(=O)c1cc(Cl)c(N)cc1OC [metoclopramide]
- effect on colonic motility [21]: little effect
- efficacy in constipated patients [21]: not very effective

Molecule: C=CCN1CC[C@]23c4c5ccc(O)c4O[C@H]2C(=O)CC[C@@]3(O)[C@H]1C5 [naloxone]
- effect of antagonist on OFQ-induced contractions ([3]; 10 min preincubation, then OFQ (10^-8 M), atropine 10^-6 M, hexamethonium 10^-4 M, naloxone 10^-5 M, indomethacin 10^-5 M, methysergide 3x10^-5 M, substance P antagonist 10^-5 M, VIP antagonist 5x10^-6 M, L-NAME 10^-4 M, apamin 10^-6 M, guanethidine, phentolamine, propranolol 10^-6 M): did not affect

Molecule: Cc1ccc(N(CC2=NCCN2)c2cccc(O)c2)cc1 [phentolamine]
- effect of antagonist on OFQ-induced contractions [3]: not affected

Molecule: CC(C)NCC(O)COc1cccc2ccccc12 (stereo not shown) [propranolol]
- effect of antagonist on OFQ-induced contractions [3]: not affected

Molecule: [D-Pro^4, D-Trp7.9]-substance P 4-11 [substance P antagonist]
- effect of antagonist on OFQ-induced contractions [3]: did not affect

Molecule: [p-chloro-D-Phe^6, LEU ^17 ]-VIP [VIP antagonist]
- antagonism of the action of VIP [3]: significantly antagonized
- effect of antagonist on OFQ-induced contractions [3]: did not affect
- effect on spontaneous contractions in the proximal colon [3]: no significant effects

Molecule: dynorphin A [reference compound]
- colonic transit [16]: delays colonic transit

B1: cholecystokinin (peptide, UniProt P06307 21-115, looked up)
Cholecystokinin: QPVPPADPAGSGLQRAEEAPRRQLRVSQRTDGESRAHLGALLARYIQQARKAPSGRMSIVKNLQNLDPSHRISDRDYMGWMDFGRRSAEEYEYPS
modifications: Cholecystokinin
- duration of post-operative ileus, treated vs placebo/control patients ([2]; human, in vivo): no differences
